Experimental data taken from patent US8992932B2, “Binder-drug conjugates (ADCs) and use thereof” (Seattle Genetics, Inc., priority 2011, dated 2015).
Counter-ions that a name gives are not always drawn. Square brackets hold non-standard residues; d marks the D form. Peptide text beside a SMILES is read from it. * marks the point of attachment. X2 = CC(C)[C@@H](C(=O)*)N(C)CCCCCCN1C(=O)CC(SC[C@H](N)C(=O)O)C1=O; X1 = CC(C)[C@@H](C(=O)*)N(C)CCCCCC(=O)NCCCC[C@H](N)C(=O)O; Dolaproine = CO[C@@H]([C@@H]1CCCN1)[C@@H](C)C(=O)O; Dil = CC[C@H](C)[C@H](NC)[C@@H](CC(=O)O)OC; Oxazinan2yl(1,2) = C1CCN(*)OC1

Test system: Caco-2 cells
Experiment: Cell permeability flux assay using Caco-2 cells
Assay type: in vitro ADME
Conditions: basal to apical, 2 hours
Description: The cell permeability of a substance can be investigated by means of in vitro testing in a flux assay using Caco-2 cells [M. D. Troutman and D R Thakker, Pharm. Res. 20 (8), 1210-1224 (2003)]. For this purpose, the cells were cultured for 15-16 days on 24-well filter plates. For the determination of permeation, the respective working example was applied in a HEPES buffer to the cells either apically (A) or basally (B) and incubated for 2 hours. After 0 hours and after 2 hours, samples were taken from the cis and trans compartments. The samples were separated by HPLC (Agilent 1200, Boblingen, Germany) using reverse phase columns. The HPLC system was coupled via a Turbo Ion Spray Interface to a Triple Quadropol mass spectrometer API 4000 (Applied Biosystems Applera, Darmstadt, Germany). The permeability was evaluated on the basis of a Papp value, which was calculated using the formula published by Schwab et al. [D. Schwab et al., J. Med. Chem. 46, 1716-1725 (2003)].

CC[C@H](C)[C@@H]([C@@H](CC(=O)N1CCC[C@H]1[C@H](OC)[C@@H](C)C(=O)N[C@@H](Cc1c[nH]c2ccccc12)C(=O)NCc1ccccc1)OC)N(C)C(=O)[C@@H](NC(=O)[C@H](C(C)C)N(C)CCCC(=O)NNC(=O)CCCCCN1C(=O)CC(SC[C@H](N)C(=O)O)C1=O)C(C)C (stereo partly drawn) [Example 77, N-(4-{2-[6-(3-{[(2R)-2-Amino-2-carboxyethyl]sulphanyl}-2,5-dioxopyrrolidin-1-yl)hexanoyl]hydrazino}-4-oxobutyl)-N-methyl-L-valyl-N-[(3R,4S,5S)-1-{(2S)-2-[(1R,2R)-3-{[(2S)-1-(benzylamino)-3-(1H-indol-3-yl)-1-oxopropan-2-yl]amino}-1-methoxy-2-methyl-3-oxopropyl]pyrrolidin-1-yl}-3-methoxy-5-methyl-1-oxoheptan-4-yl]-N-methyl-L-valinamide]
Papp (B-A): 0.7 ×10⁻⁶ cm/s

CC[C@H](C)[C@@H]([C@@H](CC(=O)N1CCC[C@H]1[C@H](OC)[C@@H](C)C(=O)N[C@@H](Cc1c[nH]c2ccccc12)C(N)=O)OC)N(C)C(=O)[C@@H](NC(=O)[C@H](C(C)C)N(C)CCCCCCN1C(=O)CC(SC[C@H](N)C(=O)O)C1=O)C(C)C (stereo partly drawn) [Example 74, N-[6-(3-{[(2R)-2-Amino-2-carboxyethyl]sulphanyl}-2,5-dioxopyrrolidin-1-yl)hexyl]-N-methyl-L-valyl-N-[(3R,4S,5S)-1-{(2S)-2-[(1R,2R)-3-{[(2S)-1-amino-3-(1H-indol-3-yl)-1-oxopropan-2-yl]amino}-1-methoxy-2-methyl-3-oxopropyl]pyrrolidin-1-yl}-3-methoxy-5-methyl-1-oxoheptan-4-yl]-N-methyl-L-valinamide] (X2-V[Dil][Dolaproine]W-NH2)
Papp (B-A): 0.5 ×10⁻⁶ cm/s

CC[C@H](C)[C@@H]([C@@H](CC(=O)N1CCC[C@H]1[C@H](OC)[C@@H](C)C(=O)N[C@@H](Cc1ccc(O)cc1)C(=O)N1CCCCO1)OC)N(C)C(=O)[C@@H](NC(=O)[C@H](C(C)C)N(C)CCCCCC(=O)NCCCC[C@H](N)C(=O)O)C(C)C [Example 127, N-(6-{[(55)-5-Amino-5-carboxypentyl]amino}-6-oxohexyl)-N-methyl-L-valyl-N-[(3R,4S,5S)-1-{(2S)-2-[(1R,2R)-3-{[(2S)-3-(4-hydroxyphenyl)-1-(1,2-oxazinan-2-yl)-1-oxopropan-2-yl]amino}-1-methoxy-2-methyl-3-oxopropyl]pyrrolidin-1-yl}-3-methoxy-5-methyl-1-oxoheptan-4-yl]-N-methyl-L-valinamide trifluoroacetate] (X1-V[Dil][Dolaproine]Y-{Oxazinan2yl(1,2)})
Papp (B-A): 0.15 ×10⁻⁶ cm/s

CC[C@H](C)[C@@H]([C@@H](CC(=O)N1CCC[C@H]1[C@H](OC)[C@@H](C)C(=O)N[C@@]1(C(=O)N2CCCCO2)C[C@@H]1c1ccccc1)OC)N(C)C(=O)[C@@H](NC(=O)[C@H](C(C)C)N(C)CCCC(=O)NNC(=O)CCCCCN1C(=O)CC(SC[C@H](N)C(=O)O)C1=O)C(C)C (stereo partly drawn) [Example 73, N-(4-{2-[6-(3-{[(2R)-2-Amino-2-carboxyethyl]sulphanyl}-2,5-dioxopyrrolidin-1-yl)hexanoyl]hydrazino}-4-oxobutyl)-N-methyl-L-valyl-N-[(3R,4S,5S)-3-methoxy-1-{(2S)-2-[(1R,2R)-1-methoxy-2-methyl-3-{[(1S,2R)-1-(1,2-oxazinan-2-ylcarbonyl)-2-phenylcyclopropyl]amino}-3-oxopropyl]pyrrolidin-1-yl}-5-methyl-1-oxoheptan-4-yl]-N-methyl-L-valinamide]
Papp (B-A): 0.25 ×10⁻⁶ cm/s

CC[C@H](C)[C@@H]([C@@H](CC(=O)N1CCC[C@H]1[C@H](OC)[C@@H](C)C(=O)N[C@@H](Cc1c[nH]c2ccccc12)C(=O)N1CCCCO1)OC)N(C)C(=O)[C@@H](NC(=O)[C@H](C(C)C)N(C)CCCCCC(=O)NCCCC[C@H](N)C(=O)O)C(C)C [Example 115, N-(6-{[(55)-5-Amino-5-carboxypentyl]amino}-6-oxohexyl)-N-methyl-L-valyl-N-[(3R,4S,5S)-1-{(2S)-2-[(1R,2R)-3-{[(2S)-3-(1H-indol-3-yl)-1-(1,2-oxazinan-2-yl)-1-oxopropan-2-yl]amino}-1-methoxy-2-methyl-3-oxopropyl]pyrrolidin-1-yl}-3-methoxy-5-methyl-1-oxoheptan-4-yl]-N-methyl-L-valinamide trifluoroacetate] (X1-V[Dil][Dolaproine]W-{Oxazinan2yl(1,2)})
Papp (B-A): 0.2 ×10⁻⁶ cm/s

CC[C@H](C)[C@@H]([C@@H](CC(=O)N1CCC[C@H]1[C@H](OC)[C@@H](C)C(=O)N[C@@H](Cc1c[nH]c2ccccc12)C(=O)O)OC)N(C)C(=O)[C@@H](NC(=O)[C@H](C(C)C)N(C)CCCCCC(=O)NCCCC[C@H](N)C(=O)O)C(C)C [Example 116, N-(6-{[(55)-5-Amino-5-carboxypentyl]amino}-6-oxohexyl)-N-methyl-L-valyl-N-[(3R,4S,5S)-1-{(2S)-2-[(1R,2R)-3-{[(1S)-1-carboxy-2-(1H-indol-3-yl)ethyl]amino}-1-methoxy-2-methyl-3-oxopropyl]pyrrolidin-1-yl}-3-methoxy-5-methyl-1-oxoheptan-4-yl]-N-methyl-L-valinamide] (X1-V[Dil][Dolaproine]W-OH)
Papp (B-A): 0.1 ×10⁻⁶ cm/s

CC[C@H](C)[C@@H]([C@@H](CC(=O)N1CCC[C@H]1[C@H](OC)[C@@H](C)C(=O)N[C@@H](Cc1c[nH]c2ccccc12)C(=O)O)OC)N(C)C(=O)[C@@H](NC(=O)[C@H](C(C)C)N(C)CCCC(=O)NNC(=O)CCCCCN1C(=O)CC(SC[C@H](N)C(=O)O)C1=O)C(C)C (stereo partly drawn) [Example 72, N-(4-{2-[6-(3-{[(2R)-2-Amino-2-carboxyethyl]sulphanyl}-2,5-dioxopyrrolidin-1-yl)hexanoyl]hydrazino}-4-oxobutyl)-N-methyl-L-valyl-N-[(3R,4S,5S)-1-{(2S)-2-[(1R,2R)-3-{[(1S)-1-carboxy-2-(1H-indol-3-yl)ethyl]amino}-1-methoxy-2-methyl-3-oxopropyl]pyrrolidin-1-yl}-3-methoxy-5-methyl-1-oxoheptan-4-yl]-N-methyl-L-valinamide]
Papp (B-A): 0.16 ×10⁻⁶ cm/s

CC[C@H](C)[C@@H]([C@@H](CC(=O)N1CCC[C@H]1[C@H](OC)[C@@H](C)C(=O)N[C@@H](Cc1c[nH]c2ccccc12)C(N)=O)OC)N(C)C(=O)[C@@H](NC(=O)[C@H](C(C)C)N(C)CCCC(=O)NNC(=O)CCCCCN1C(=O)CC(SC[C@H](N)C(=O)O)C1=O)C(C)C (stereo partly drawn) [Example 71, N-(4-{2-[6-(3-{[(2R)-2-Amino-2-carboxyethyl]sulphanyl}-2,5-dioxopyrrolidin-1-yl)hexanoyl]hydrazino}-4-oxobutyl)-N-methyl-L-valyl-N-[(3R,4S,5S)-1-{(2S)-2-[(1R,2R)-3-{[(2S)-1-amino-3-(1H-indol-3-yl)-1-oxopropan-2-yl]amino}-1-methoxy-2-methyl-3-oxopropyl]pyrrolidin-1-yl}-3-methoxy-5-methyl-1-oxoheptan-4-yl]-N-methyl-L-valinamide]
Papp (B-A): 0.2 ×10⁻⁶ cm/s
